Data from patent publication US8461107B2 (Merck Sharp & Dohme Corp., priority 2008, dated 2013).

Each compound was assayed against T1, HCV genotype 1b (BK) NS3 modified with a R155K mutation (Hepatitis C virus genotype 1b, UniProt P26663, R1181K) (assay: HCV NS3 protease time-resolved fluorescence (TRF) assay, NS3 protease 1b R155K Ki activity). Details: HCV genotype 1b (BK) NS3 with R155K mutation; TRF peptide substrate 100 nM; Ki derived from IC50.
T1 construct: HCV genotype 1b (BK) NS3 modified with a R155K mutation
Format: biochemical
Procedure, shortened: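 Pre-incubation of NS3/NS4A protease (genotype 1b BK, R155K) with inhibitor for 30 min, then 1 h at room temperature with 100 nM TRF peptide substrate in pH 7.5 HEPES buffer with 10 mM DTT. Reaction quenched with pH 5.5 MES; time-resolved fluorescence read (ex 340/em 615 nm). Ki derived from four-parameter IC50 fit via IC50=Ki(1+[S]/KM).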

Compared with `C=C[C@@H]1C[C@]1(NC(=O)[C@@H]1C[C@@H]2CN1C(=O)[C@H](C1CCCC1)NC(=O)O[C@@H]1CCC[C@H]1CCCCCn1c(nc3c(OC)cccc3c1=O)O2)C(=O)NS(=O)(=O)C1CC1` [(3aR,7S,10S,12R,25aR)-7-cyclopentyl-N-((1R,2S)-1-{[(cyclopropylsulfonyl)amino]carbonyl}-2-vinylcyclopropyl)-15-methoxy-5,8,19-trioxo-1,2,3,3a,5,6,7,8,11,12,21,22,23,24,25,25a-hexadecahydro-10H,19H-9,12-methanocyclopenta[18,19][1,10,3,6,12]dioxatriazacyclononadecino[11,12-b]quinazoline-10-carboxamide], `C=C[C@@H]1C[C@]1(NC(=O)[C@@H]1C[C@@H]2CN1C(=O)[C@H](C1CCCC1)NC(=O)O[C@@H]1CCC[C@H]1CCCCCn1c(nc3cccc(OC)c3c1=O)O2)C(=O)NS(=O)(=O)C1CC1` [(3aR,7S,10S,12R,25aR)-7-cyclopentyl-N-((1R,2S)-1-{[(cyclopropylsulfonyl)amino]carbonyl}-2-vinylcyclopropyl)-18-methoxy-5,8,19-trioxo-1,2,3,3a,5,6,7,8,11,12,21,22,23,24,25,25a-hexadecahydro-10H,19H-9,12-methanocyclopenta[18,19][1,10,3,6,12]dioxatriazacyclononadecino[11,12-b]quinazoline-10-carboxamide] is higher in Ki: < 0.1 nM for the first, 0.1 to 0.5 nM for the second.

`C=C[C@@H]1C[C@]1(NC(=O)[C@@H]1C[C@@H]2CN1C(=O)[C@H](C1CCCC1)NC(=O)O[C@@H]1CCC[C@H]1CCCCCn1c(nc3cc(OC)ccc3c1=O)O2)C(=O)NS(=O)(=O)C1CC1` [(3aR,7S,10S,12R,25aR)-7-cyclopentyl-N-((1R,2S)-1-{[(cyclopropylsulfonyl)amino]carbonyl}-2-vinylcyclopropyl)-16-methoxy-5,8,19-trioxo-1,2,3,3a,5,6,7,8,11,12,21,22,23,24,25,25a-hexadecahydro-10H,19H-9,12-methanocyclopenta[18,19][1,10,3,6,12]dioxatriazacyclononadecino[11,12-b]quinazoline-10-carboxamide] and `C=C[C@@H]1C[C@]1(NC(=O)[C@@H]1C[C@@H]2CN1C(=O)[C@H](C1CCCC1)NC(=O)O[C@@H]1CCC[C@H]1CCCCCn1c(nc3cc(C)ccc3c1=O)O2)C(=O)NS(=O)(=O)C1CC1` [(3aR,7S,10S,12R,25aR)-7-cyclopentyl-N-((1R,2S)-1-{[(cyclopropylsulfonyl)amino]carbonyl}-2-vinylcyclopropyl)-16-methyl-5,8,19-trioxo-1,2,3,3a,5,6,7,8,11,12,21,22,23,24,25,25a-hexadecahydro-10H,19H-9,12-methanocyclopenta[18,19][1,10,3,6,12]dioxatriazacyclononadecino[11,12-b]quinazoline-10-carboxamide] cannot be ordered by Ki: < 0.1 nM for the first, < 0.1 nM for the second.

`C=C[C@@H]1C[C@]1(NC(=O)[C@@H]1C[C@@H]2CN1C(=O)[C@H](C1CCCC1)NC(=O)O[C@@H]1CCC[C@H]1CCCCCn1c(cc3cc(OC)ccc3c1=O)O2)C(=O)NS(=O)(=O)C1CC1` [(3aR,7S,10S,12R,25aR)-7-cyclopentyl-N-((1R,2S)-1-{[(cyclopropylsulfonyl)amino]carbonyl}-2-vinylcyclopropyl)-16-methoxy-5,8,19-trioxo-1,2,3,3a,5,6,7,8,11,12,21,22,23,24,25,25a-hexadecahydro-10H,19H-9,12-methanocyclopenta[18,19][1,10,3,6,12]dioxatriazacyclononadecino[12,11-b]isoquinoline-10-carboxamide] and `C=C[C@@H]1C[C@]1(NC(=O)[C@@H]1C[C@@H]2CN1C(=O)[C@H](C1CCCCC1)NC(=O)O[C@@H]1CCC[C@H]1CCCCCn1c(cc3cc(Cl)ccc3c1=O)O2)C(=O)NS(=O)(=O)C1CC1` [(3aR,7S,10S,12R,25aR)-16-chloro-7-cyclohexyl-N-((1R,2S)-1-{[(cyclopropylsulfonyl)amino]carbonyl}-2-vinylcyclopropyl)-5,8,19-trioxo-1,2,3,3a,5,6,7,8,11,12,21,22,23,24,25,25a-hexadecahydro-10H,19H-9,12-methanocyclopenta[18,19][1,10,3,6,12]dioxatriazacyclononadecino[12,11-b]isoquinoline-10-carboxamide] cannot be ordered by Ki: < 0.1 nM for the first, < 0.1 nM for the second.

First: C=C[C@@H]1C[C@]1(NC(=O)[C@@H]1C[C@@H]2CN1C(=O)[C@H](C1CCCC1)NC(=O)O[C@@H]1CCC[C@H]1CCCCCn1c(cc3ccc(F)cc3c1=O)O2)C(=O)NS(=O)(=O)C1CC1 [(3aR,7S,10S,12R,25aR)-7-cyclopentyl-N-((1R,2S)-1-{[(cyclopropylsulfonyl)amino]carbonyl}-2-vinylcyclopropyl)-17-fluoro-5,8,19-trioxo-1,2,3,3a,5,6,7,8,11,12,21,22,23,24,25,25a-hexadecahydro-10H,19H-9,12-methanocyclopenta[18,19][1,10,3,6,12]dioxatriazacyclononadecino[12,11-b]isoquinoline-10-carboxamide]
Second: C=C[C@@H]1C[C@]1(NC(=O)[C@@H]1C[C@@H]2CN1C(=O)[C@H](C1CCCC1)NC(=O)O[C@@H]1CCC[C@H]1CCCCCn1c(nc3cc(Br)ccc3c1=O)O2)C(=O)NS(=O)(=O)C1CC1 [(3aR,7S,10S,12R,25aR)-16-bromo-7-cyclopentyl-N-((1R,2S)-1-{[(cyclopropylsulfonyl)amino]carbonyl}-2-vinylcyclopropyl)-5,8,19-trioxo-1,2,3,3a,5,6,7,8,11,12,21,22,23,24,25,25a-hexadecahydro-10H,19H-9,12-methanocyclopenta[18,19][1,10,3,6,12]dioxatriazacyclononadecino[11,12-b]quinazoline-10-carboxamide]
The Ki of the first is lower: < 0.1 nM for the first, 0.1 to 0.5 nM for the second. The first binds more tightly here.

`C=C[C@@H]1C[C@]1(NC(=O)[C@@H]1C[C@@H]2CN1C(=O)[C@H](C(C)(C)C)NC(=O)O[C@@H]1CCC[C@H]1CCCCCn1c(cc3cc(Cl)ccc3c1=O)O2)C(=O)NS(=O)(=O)C1CC1` [(3aR,7S,10S,12R,25aR)-7-tert-butyl-16-chloro-N-((1R,2S)-1-{[(cyclopropylsulfonyl)amino]carbonyl}-2-vinylcyclopropyl)-5,8,19-trioxo-1,2,3,3a,5,6,7,8,11,12,21,22,23,24,25,25a-hexadecahydro-10H,19H-9,12-methanocyclopenta[18,19][1,10,3,6,12]dioxatriazacyclononadecino[12,11-b]isoquinoline-10-carboxamide] and `C=C[C@@H]1C[C@]1(NC(=O)[C@@H]1C[C@@H]2CN1C(=O)[C@H](C(C)(C)C)NC(=O)O[C@@H]1CCC[C@H]1CCCCCn1c(cc3cc(OC)ccc3c1=O)O2)C(=O)NS(=O)(=O)C1CC1` [(3aR,7S,10S,12R,25aR)-7-tert-butyl-N-((1R,2S)-1-{[(cyclopropylsulfonyl)amino]carbonyl}-2-vinylcyclopropyl)-16-methoxy-5,8,19-trioxo-1,2,3,3a,5,6,7,8,11,12,21,22,23,24,25,25a-hexadecahydro-10H,19H-9,12-methanocyclopenta[18,19][1,10,3,6,12]dioxatriazacyclononadecino[12,11-b]isoquinoline-10-carboxamide] cannot be ordered by Ki: < 0.1 nM for the first, < 0.1 nM for the second.

`CC[C@@H]1C[C@]1(NC(=O)[C@@H]1C[C@@H]2CN1C(=O)[C@H](C(C)(C)C)NC(=O)O[C@@H]1CCC[C@H]1CCCCCn1c(cc3cc(OC)ccc3c1=O)O2)C(=O)NS(=O)(=O)C1CC1` [(3aR,7S,10S,12R,25aR)-7-tert-butyl-N-((1R,2R)-1-{[(cyclopropylsulfonyl)amino]carbonyl}-2-ethylcyclopropyl)-16-methoxy-5,8,19-trioxo-1,2,3,3a,5,6,7,8,11,12,21,22,23,24,25,25a-hexadecahydro-10H,19H-9,12-methanocyclopenta[18,19][1,10,3,6,12]dioxatriazacyclononadecino[12,11-b]isoquinoline-10-carboxamide] and `CC[C@@H]1C[C@]1(NC(=O)[C@@H]1C[C@@H]2CN1C(=O)[C@H](C1CCCC1)NC(=O)O[C@@H]1CCC[C@H]1CCCCCn1c(cc3cc(Cl)ccc3c1=O)O2)C(=O)NS(=O)(=O)C1CC1` [(3aR,7S,10S,12R,25aR)-16-chloro-7-cyclopentyl-N-((1R,2R)-1-{[(cyclopropylsulfonyl)amino]carbonyl}-2-ethylcyclopropyl)-5,8,19-trioxo-1,2,3,3a,5,6,7,8,11,12,21,22,23,24,25,25a-hexadecahydro-10H,19H-9,12-methanocyclopenta[18,19][1,10,3,6,12]dioxatriazacyclononadecino[12,11-b]isoquinoline-10-carboxamide] fall in the same range of Ki: 0.1 to 0.5 nM for the first, 0.1 to 0.5 nM for the second.

`CC[C@@H]1C[C@]1(NC(=O)[C@@H]1C[C@@H]2CN1C(=O)[C@H](C1CCCCC1)NC(=O)O[C@@H]1CCC[C@H]1CCCCCn1c(cc3cc(Cl)ccc3c1=O)O2)C(=O)NS(=O)(=O)C1CC1` [(3aR,7S,10S,12R,25aR)-16-chloro-7-cyclohexyl-N-((1R,2R)-1-{[(cyclopropylsulfonyl)amino]carbonyl}-2-ethylcyclopropyl)-5,8,19-trioxo-1,2,3,3a,5,6,7,8,11,12,21,22,23,24,25,25a-hexadecahydro-10H,19H-9,12-methanocyclopenta[18,19][1,10,3,6,12]dioxatriazacyclononadecino[12,11-b]isoquinoline-10-carboxamide] and `CC[C@@H]1C[C@]1(NC(=O)[C@@H]1C[C@@H]2CN1C(=O)[C@H](C1CCCC1)NC(=O)O[C@@H]1CCC[C@H]1CCCCCn1c(nc3cc(Cl)ccc3c1=O)O2)C(=O)NS(=O)(=O)C1CC1` [(3aR,7S,10S,12R,25aR)-16-chloro-7-cyclopentyl-N-((1R,2R)-1-{[(cyclopropylsulfonyl)amino]carbonyl}-2-ethylcyclopropyl)-5,8,19-trioxo-1,2,3,3a,5,6,7,8,11,12,21,22,23,24,25,25a-hexadecahydro-10H,19H-9,12-methanocyclopenta[18,19][1,10,3,6,12]dioxatriazacyclononadecino[11,12-b]quinazoline-10-carboxamide] fall in the same range of Ki: 0.1 to 0.5 nM for the first, 0.1 to 0.5 nM for the second.
